Results from PubChem BioAssay (NCI).
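Grown in 96-well plates, cells were treated for 48 hours with each compound at five concentrations. Insufficient inhibition: endpoint recorded as highest concentration tested. TGI: total growth inhibition.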

How the values were obtained:
Experiment in all cases: growth of human tumour cells (NCI), 48 h
[1] = tested on: HS 578T breast
[2] = tested on: SK-OV-3 ovarian
[3] = tested on: RPMI-8226 leukemia
[4] = tested on: MALME-3M melanoma
[5] = tested on: SW-620 colon
[6] = tested on: MCF7 breast
[7] = tested on: SK-MEL-5 melanoma
[8] = tested on: NCI/ADR-RES ovarian
[9] = tested on: NCI-H226 lung
[10] = tested on: TK-10 renal
[11] = tested on: BT-549 breast
[12] = tested on: A498 renal
[13] = tested on: DU-145 prostate
[14] = tested on: HCT-116 colon
[15] = tested on: U251 CNS
[16] = tested on: HOP-92 NSCLC
[17] = tested on: PC-3 prostate
[18] = tested on: MDA-MB-231 breast
[19] = tested on: CAKI-1 renal
[20] = tested on: IGROV1 ovarian
[21] = tested on: EKVX NSCLC
[22] = tested on: SK-MEL-28 melanoma
[23] = tested on: A549 NSCLC
[24] = tested on: K-562 leukemia
[25] = tested on: KM12 colon
[26] = tested on: OVCAR-3 ovarian
[27] = tested on: NCI-H23 lung
[28] = tested on: SF-295 CNS
[29] = tested on: MDA-N
[30] = tested on: COLO 205 colon
[31] = tested on: ACHN renal
[32] = tested on: SN12C renal
[33] = tested on: M14 melanoma
[34] = tested on: 786-0 renal
[35] = tested on: OVCAR-5 ovarian
[36] = tested on: SNB-19 CNS
[37] = tested on: MDA-MB-435
[38] = tested on: OVCAR-4 ovarian
[39] = tested on: RXF 393 renal
[40] = tested on: SNB-75 CNS
[41] = tested on: SF-539 CNS
[42] = tested on: SF-268 CNS
[43] = tested on: HOP-62 NSCLC
[44] = tested on: SR leukemia
[45] = tested on: CCRF-CEM leukemia
[46] = tested on: OVCAR-8 ovarian
[47] = tested on: NCI-H460 lung
[48] = tested on: HT29 colon
[49] = tested on: UACC-257 melanoma
[50] = tested on: UACC-62 melanoma
[51] = tested on: MOLT-4 leukemia
[52] = tested on: SK-MEL-2 melanoma
[53] = tested on: NCI-H522 lung
[54] = tested on: HL-60(TB) leukemia
[55] = tested on: T-47D breast
[56] = tested on: UO-31 renal
[57] = tested on: HCT-15 colon
[58] = tested on: LOX IMVI melanoma
[59] = tested on: HCC-2998 colon

Compound: O=c1[nH]c(SCc2c(Cl)c(Cl)c(Cl)c(Cl)c2Cl)nc(=S)[nH]1
- TGI [1]: > 100 µM
- TGI [2]: > 100 µM
- TGI [3]: 23.3 µM
- TGI [4]: 73.4 µM
- TGI [5]: > 100 µM
- TGI [6]: > 100 µM
- TGI [7]: > 100 µM
- TGI [8]: > 100 µM
- TGI [9]: > 100 µM
- TGI [10]: > 100 µM
- TGI [11]: > 100 µM
- TGI [12]: > 100 µM
- TGI [13]: > 100 µM
- TGI [14]: > 100 µM
- TGI [15]: > 100 µM
- TGI [16]: > 100 µM
- TGI [17]: > 100 µM
- TGI [18]: > 100 µM
- TGI [19]: > 100 µM
- TGI [20]: > 100 µM
- TGI [21]: > 100 µM
- TGI [22]: 98.6 µM
- TGI [23]: > 100 µM
- TGI [24]: 45.9 µM
- TGI [25]: > 100 µM
- TGI [26]: 31 µM
- TGI [27]: > 100 µM
- TGI [28]: > 100 µM
- TGI [29]: > 100 µM
- TGI [30]: 33.8 µM
- TGI [31]: > 100 µM
- TGI [32]: > 100 µM
- TGI [33]: > 100 µM
- TGI [34]: > 100 µM
- TGI [35]: > 100 µM
- TGI [36]: > 100 µM
- TGI [37]: > 100 µM
- TGI [38]: 54.8 µM
- TGI [39]: 35.5 µM
- TGI [40]: > 100 µM
- TGI [41]: > 100 µM
- TGI [42]: > 100 µM
- TGI [43]: > 100 µM
- TGI [44]: 0.516 µM
- TGI [45]: 36.9 µM
- TGI [46]: > 100 µM
- TGI [47]: > 100 µM
- TGI [48]: > 63 µM
- TGI [49]: > 100 µM
- TGI [50]: > 100 µM
- TGI [51]: 21.3 µM
- TGI [52]: > 100 µM
- TGI [53]: 34.4 µM
- TGI [54]: 51.4 µM
- TGI [55]: > 82.9 µM
- TGI [56]: > 58.9 µM
- TGI [57]: > 100 µM
- TGI [58]: > 100 µM

Compound: c1ccc2c3c([nH]c2c1)C1c2[nH]c4ccccc4c2CCN1CC3
- TGI [1]: 44.7 µM
- TGI [2]: 27.1 µM
- TGI [3]: > 100 µM
- TGI [4]: 30 µM
- TGI [5]: 45.5 µM
- TGI [6]: 30.8 µM
- TGI [7]: 28 µM
- TGI [8]: 5.47 µM
- TGI [9]: 37.6 µM
- TGI [10]: 23.2 µM
- TGI [11]: 29.9 µM
- TGI [12]: 34.4 µM
- TGI [13]: 26.1 µM
- TGI [14]: 23.3 µM
- TGI [16]: 15.4 µM
- TGI [17]: 27.1 µM
- TGI [18]: 36.6 µM
- TGI [19]: 34.2 µM
- TGI [20]: 31.1 µM
- TGI [21]: 20.2 µM
- TGI [22]: 31.7 µM
- TGI [23]: 36.2 µM
- TGI [25]: 41.3 µM
- TGI [26]: 25.1 µM
- TGI [27]: 28.2 µM
- TGI [28]: 34.3 µM
- TGI [29]: 35.6 µM
- TGI [30]: 35.2 µM
- TGI [31]: 27.1 µM
- TGI [32]: 32.6 µM
- TGI [34]: 25.8 µM
- TGI [35]: 33.7 µM
- TGI [37]: 33.5 µM
- TGI [38]: 18.7 µM
- TGI [39]: 27 µM
- TGI [40]: 38.8 µM
- TGI [41]: 31.3 µM
- TGI [42]: 30.3 µM
- TGI [43]: 27.8 µM
- TGI [44]: > 100 µM
- TGI [45]: > 100 µM
- TGI [46]: 26.9 µM
- TGI [59]: 25.9 µM
- TGI [47]: 24.3 µM
- TGI [48]: 26.7 µM
- TGI [49]: 28.6 µM
- TGI [50]: 33.9 µM
- TGI [51]: 42.1 µM
- TGI [52]: 64.2 µM
- TGI [53]: 28.6 µM
- TGI [54]: 66.5 µM
- TGI [55]: 37.1 µM
- TGI [56]: 18.5 µM
- TGI [57]: 26.9 µM
- TGI [58]: 34.8 µM
